According to patent publication US7696201B2, “Modulators of muscarinic receptors” (Vertex Pharmaceuticals Incorporated, priority 2006, dated 2010):

Key:
Type in all cases: cell-based
M1 muscarinic receptor = biological target: T1, M1 muscarinic receptor (Homo sapiens, UniProt P11229); test: Functional mobilization of intracellular calcium (FLIPR), M1-CHO cells; conditions: for Emax: 100% efficacy is the maximum response obtained with the Carbachol control; for M1 Activity: CHO cells expressing M1, calcium mobilization
T1 construct: expressed in transfected cells; host or cells: CHO (M1-CHO)
T1 sequence (P11229 1-460): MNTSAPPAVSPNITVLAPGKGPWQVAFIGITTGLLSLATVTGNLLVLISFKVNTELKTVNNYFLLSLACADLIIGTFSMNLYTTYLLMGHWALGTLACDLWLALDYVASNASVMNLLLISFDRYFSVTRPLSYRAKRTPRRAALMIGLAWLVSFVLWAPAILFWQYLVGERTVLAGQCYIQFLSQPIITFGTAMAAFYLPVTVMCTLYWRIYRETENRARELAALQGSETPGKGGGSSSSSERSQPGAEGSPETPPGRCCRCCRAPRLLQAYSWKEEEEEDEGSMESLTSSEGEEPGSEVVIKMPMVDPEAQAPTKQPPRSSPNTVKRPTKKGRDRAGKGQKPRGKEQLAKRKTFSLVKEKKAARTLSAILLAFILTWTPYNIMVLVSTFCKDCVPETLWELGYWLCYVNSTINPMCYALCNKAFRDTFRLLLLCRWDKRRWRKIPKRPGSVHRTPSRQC
Method: (§1) Functional Mobilization of Intracellular Calcium to Determine Muscarinic Receptor Activity:
(§2) CHO cells expressing muscarinic receptors (M1 to M5) are grown as monolayers in tissue culture flasks at 37° C. in a humidified atmosphere containing 5% CO2 and passaged every 3-5 days. The growth media is Dulbecco's modified eagles medium (DMEM, Gibco Cat# 12430-054), containing 25 mM Hepes and supplemented with Fetal Bovine Serum (Hyclone, cat# SH30071.03), 0.1 mM of MEM non-essential amino acids (GIBCO, Cat# 11140-050), 1 mM MEM Sodium Pyruvate (GIBCO Cat# 11360-070) and 100 units/ml of Penicillin G and 100 μg/ml of Streptomycin (GIBCO Cat# 15140-122). The recombinant muscarinic receptor cell lines are grown under antibiotic pressure with media containing 25 μg/ml zeocin and 500 μg/ml G418 (M1-CHO), 4 μg/ml puromycin, 50 μg/ml zeocin and 2.5 μg/ml blasticidin (M2 and M4-CHO) or 50 μg/ml zeocin and 4 μg/ml puromycin (M3 and M5-CHO).
(§3) Cells are harvested at 80-90% confluence using Versene (GIBCO Cat# 15040-066), collected by centrifugation and seeded 18-24 hours prior to running the calcium assay at a density of 5,000-10,000 cells/well in […], clear-bottomed 384-well plates (BD Biocoat, poly-D-lysine, Cat#356663). The day of the experiment, the cells are washed with a plate washer (Bioteck Instruments, ELX 405) using Bath 1 buffer (140-mM NaCl, 4.5-mM KCl, 2-mM CaCl2, 1-mM MgCl2, 10-mM Hepes-Na, 10-mM Glucose, pH 7.4, with NaOH) containing 1 mM Probenecid. Next, the calcium dye Fluo-3 (25 μl/well of Fluo-3 AM at 4 μM, Molecular Probes F-1241, in Bath 1 buffer containing 1 mM Probenecid) is added to the 25 μl of Bath 1 remaining in each well after the plate wash and the dye is loaded at 37° C. in the tissue culture incubator for 60-90 min. The fluorescent dye is removed using the plate washer with Bath 1 containing 1 mM Probenecid, leaving 25 μl/well of this solution after the wash. Alternatively, cells can be loaded with the calcium indicator from Molecular Devices (Calcium 3 Assay Reagents, Cat # R7181) adding 5 μl of a 5× solution dye in Bath 1 containing 1 mM Probenecid (10 ml per dye flask cat# R7182 to generate a solution 20×) to 20 μl of the same buffer. After loading for 60 min, the experiment can be run without having to remove the dye.
(§4) Compounds are prepared at a 2× fold concentration in a 96-well plate (round bottom, Costar Corning cat# 3656), by reconstituting the pre-spotted compounds in bath 1 containing 1 mM probenecid. The final concentration DMSO is 0.5%, and the amount of DMSO is normalized across the assay plate. To determine an agonist action of the compounds on muscarinic receptors, the reconstituted compounds are added (25 μl compound/well) to the cell assay plate (containing 25 μl/well) using the multi-channel robotic system of the FLIPR 3 Instrument (Molecular Devices, Sunnyvale, Calif.). To determine a functional inhibitory action of the compounds on muscarinic receptors, the reconstituted compounds are added (25 μl compound/well) to the assay plate and pre-incubated for 15 min prior to adding 25 μl of Carbachol at 3× the EC80 for each muscarinic subtype. Alternatively, the compounds can be co-applied simultaneously with the agonist. In both assay modes, the fluorescence is recorded for 60 sec (excitation wavelength is […] and emission wavelength 540 nm) using the FLIPR 3 instrument.
(§5) The potency, efficacy and selectivity of the muscarinic compounds were evaluated by screening the compound activity across the whole family (M1 to M5 cells). Compounds were also screened for activity on other proteins such as other GPCRs and ion channels to determine selectivity on M4 receptors.
(§6) Examples of activities and efficacies of the muscarinic compounds of formulae (I, Ia, Ib, Ic, and Id) on modulating M1 and M4 receptors are shown below in Table 3. […]

M3 muscarinic receptor = biological target: T2, M3 muscarinic receptor (Homo sapiens, UniProt P20309); test: Functional mobilization of intracellular calcium (FLIPR), M3-CHO cells; conditions: for Emax: 100% efficacy is the maximum response obtained with the Carbachol control; for M3 Activity: CHO cells expressing M3, calcium mobilization
T2 construct: expressed in transfected cells; host or cells: CHO (M3-CHO)
T2 sequence (P20309 whole entry): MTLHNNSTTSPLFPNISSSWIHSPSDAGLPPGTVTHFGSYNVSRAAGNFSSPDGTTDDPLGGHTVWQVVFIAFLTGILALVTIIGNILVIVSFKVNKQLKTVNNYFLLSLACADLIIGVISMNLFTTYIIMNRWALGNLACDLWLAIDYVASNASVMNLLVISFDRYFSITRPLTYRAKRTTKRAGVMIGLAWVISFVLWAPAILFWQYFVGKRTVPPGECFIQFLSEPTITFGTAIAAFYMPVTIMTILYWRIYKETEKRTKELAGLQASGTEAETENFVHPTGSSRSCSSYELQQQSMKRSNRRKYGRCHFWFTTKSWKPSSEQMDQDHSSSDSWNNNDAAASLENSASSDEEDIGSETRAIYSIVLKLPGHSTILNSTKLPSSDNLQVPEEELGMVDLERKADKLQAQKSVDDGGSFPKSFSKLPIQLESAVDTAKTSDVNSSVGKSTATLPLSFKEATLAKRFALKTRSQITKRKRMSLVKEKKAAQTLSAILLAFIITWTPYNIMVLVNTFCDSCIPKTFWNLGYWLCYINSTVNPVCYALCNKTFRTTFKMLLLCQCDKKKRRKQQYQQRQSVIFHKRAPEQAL
Method: as §1, §2, §3, §4, §5, §6

M4 muscarinic receptor = biological target: T3, M4 muscarinic receptor (Homo sapiens, UniProt P08173); test: Functional mobilization of intracellular calcium (FLIPR), M4-CHO cells; conditions: for Emax: 100% efficacy is the maximum response obtained with the Carbachol control; for M4 Activity: CHO cells expressing M4, calcium mobilization
T3 construct: expressed in transfected cells; host or cells: CHO (M4-CHO)
T3 sequence (P08173 1-479): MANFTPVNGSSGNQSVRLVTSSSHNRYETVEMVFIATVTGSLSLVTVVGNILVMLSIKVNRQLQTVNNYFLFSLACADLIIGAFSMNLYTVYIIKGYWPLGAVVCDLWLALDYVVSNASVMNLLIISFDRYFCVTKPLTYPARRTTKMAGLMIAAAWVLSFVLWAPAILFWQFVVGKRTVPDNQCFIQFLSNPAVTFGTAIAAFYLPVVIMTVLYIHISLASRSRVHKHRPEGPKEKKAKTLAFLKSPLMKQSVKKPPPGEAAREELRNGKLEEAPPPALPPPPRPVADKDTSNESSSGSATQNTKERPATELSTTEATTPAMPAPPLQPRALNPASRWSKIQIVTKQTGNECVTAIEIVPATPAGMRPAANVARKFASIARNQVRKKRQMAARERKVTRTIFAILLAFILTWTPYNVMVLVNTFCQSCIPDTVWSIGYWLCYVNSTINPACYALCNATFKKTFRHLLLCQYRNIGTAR
Method: as §1, §2, §3, §4, §5, §6

M2 muscarinic receptor = biological target: T4, M2 muscarinic receptor (Homo sapiens, UniProt P08172); test: Functional mobilization of intracellular calcium (FLIPR), M2-CHO cells; conditions: for Emax: 100% efficacy is the maximum response obtained with the Carbachol control; for M2 Activity: CHO cells expressing M2, calcium mobilization
T4 construct: expressed in transfected cells; host or cells: CHO (M2-CHO)
T4 sequence (P08172 1-466): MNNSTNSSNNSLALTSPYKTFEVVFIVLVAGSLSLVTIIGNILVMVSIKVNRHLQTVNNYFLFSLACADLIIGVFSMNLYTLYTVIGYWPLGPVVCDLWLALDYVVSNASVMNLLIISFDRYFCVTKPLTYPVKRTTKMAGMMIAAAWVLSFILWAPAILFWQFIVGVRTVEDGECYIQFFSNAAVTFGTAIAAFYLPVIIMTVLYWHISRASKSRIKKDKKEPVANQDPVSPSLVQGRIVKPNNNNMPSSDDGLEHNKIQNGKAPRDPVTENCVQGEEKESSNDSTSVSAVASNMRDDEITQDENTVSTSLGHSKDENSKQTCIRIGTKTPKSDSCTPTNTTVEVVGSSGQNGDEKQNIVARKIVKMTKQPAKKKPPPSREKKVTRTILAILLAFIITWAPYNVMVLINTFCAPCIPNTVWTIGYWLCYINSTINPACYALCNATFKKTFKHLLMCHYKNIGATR
Method: as §1, §2, §3, §4, §5, §6

Structure (SMILES)	Emax (M1 muscarinic receptor) [%]	M1 Activity (M1 muscarinic receptor)	Emax (M3 muscarinic receptor) [%]	M3 Activity (M3 muscarinic receptor)	Emax (M4 muscarinic receptor) [%]	M4 Activity (M4 muscarinic receptor)	Emax (M2 muscarinic receptor) [%]	M2 Activity (M2 muscarinic receptor)
CC(C)CCN1CCC2(CC1)OC(=O)Nc1ccccc12 [Compound 76, 1′-isopentylspiro[benzo[d][1,3]oxazine-4,4′-piperidin]-2(1H)-one]	25 to 100	+++ (activity was measured to be less than 2.0 μM)	< 25	+ (activity was measured to be greater than 5.0 μM)	25 to 100	+++ (activity was measured to be less than 2.0 μM)	25 to 100	+ (activity was measured to be greater than 5.0 μM)
CCC(C)(C)C1CCC(N2CCC3(CC2)OC(=O)Nc2ccccc23)CC1 (stereo not drawn) [Compound 35]	25 to 100	+++ (activity was measured to be less than 2.0 μM)	< 25	+ (activity was measured to be greater than 5.0 μM)	< 25	+ (activity was measured to be greater than 5.0 μM)	< 25	+ (activity was measured to be greater than 5.0 μM)
CN1C(=O)OC2(CCN(C3CCCCCC3)CC2)c2ccccc21 [Compound 65, 1′-cycloheptyl-1-methylspiro[benzo[d][1,3]oxazine-4,4′-piperidin]-2(1H)-one]	< 25	+ (activity was measured to be greater than 5.0 μM)	< 25	+ (activity was measured to be greater than 5.0 μM)	25 to 100	+++ (activity was measured to be less than 2.0 μM)	< 25	+ (activity was measured to be greater than 5.0 μM)
O=C1Nc2ccccc2C2(CCN(C3CC4CCC(C4)C3)CC2)O1 (stereo not drawn) [Compound 67, 1′-(bicyclo[3.2.1]octan-3-yl)spiro[benzo[d][1,3]oxazine-4,4′-piperidin]-2(1H)-one]	25 to 100	+++ (activity was measured to be less than 2.0 μM)	25 to 100	+ (activity was measured to be greater than 5.0 μM)	25 to 100	+++ (activity was measured to be less than 2.0 μM)	25 to 100	+++ (activity was measured to be less than 2.0 μM)
O=C1CCC(N2CCC3(CC2)OC(=O)Nc2ccccc23)CC1 [Compound 64, 1′-(4-oxocyclohexyl)spiro[benzo[d][1,3]oxazine-4,4′-piperidin]-2(1H)-one]	25 to 100	++ (activity was measured to be from 2.0 μM to 5.0 μM)	< 25	+ (activity was measured to be greater than 5.0 μM)	25 to 100	++ (activity was measured to be from 2.0 μM to 5.0 μM)	25 to 100	+ (activity was measured to be greater than 5.0 μM)
O=C1Nc2ccccc2C2(CCN(CC3CCCCC3)CC2)O1 [Compound 27]	25 to 100	+++ (activity was measured to be less than 2.0 μM)	< 25	+ (activity was measured to be greater than 5.0 μM)	25 to 100	+++ (activity was measured to be less than 2.0 μM)	25 to 100	++ (activity was measured to be from 2.0 μM to 5.0 μM)
O=C1Nc2ccccc2C2(CCN(C3CCCCCC3)CC2)O1 [Compound 5, 1′-cycloheptylspiro[benzo[d][1,3]oxazine-4,4′-piperidin]-2(1H)-one]	25 to 100	+++ (activity was measured to be less than 2.0 μM)	< 25	+ (activity was measured to be greater than 5.0 μM)	25 to 100	+++ (activity was measured to be less than 2.0 μM)	25 to 100	+ (activity was measured to be greater than 5.0 μM)
O=C1Nc2ccccc2C2(CCN(C3CCN(c4cnccn4)CC3)CC2)O1 [Compound 74, 1′-(1-(pyrazin-2-yl)piperidin-4-yl)spiro[benzo[d][1,3]oxazine-4,4′piperidin]-2(1H)-one]	> 100	+++ (activity was measured to be less than 2.0 μM)	25 to 100	+ (activity was measured to be greater than 5.0 μM)	25 to 100	+++ (activity was measured to be less than 2.0 μM)	25 to 100	+++ (activity was measured to be less than 2.0 μM)
O=C1Nc2ccccc2C2(CCN(CC3CCCOC3)CC2)O1 (stereo not drawn) [Compound 11]	25 to 100	+++ (activity was measured to be less than 2.0 μM)	< 25	+ (activity was measured to be greater than 5.0 μM)	25 to 100	+++ (activity was measured to be less than 2.0 μM)	25 to 100	+ (activity was measured to be greater than 5.0 μM)
